In assay [1] the test system is DC2.4 cells. It is filed as cell-based.
For assay [2], the target named is H-2K^b (K^b heavy chain with β2-microglobulin), recombinant, refolded (mouse | not stated). Kind of assay: circular dichroism thermal denaturation.
Assay [3] in a line: Immunogenicity in preliminary experiments. As to conditions: data not shown.
In assay [4] the test system is brain-derived CD8 T cells. Put plainly: IFN-γ intracellular cytokine staining of brain-derived leukocytes. The format is cell-based, C57BL/6 (B6) mice. As to conditions: brain-derived cells of rJ-infected mice, day 7 p.i.
In assay [5] the test system is brain-derived CD8 T cells. As to conditions: ref [14]; cited from earlier work.

With CSLWNGPHL [Epitope S510], in assay [1], the “detection of peptide eluted from MHC complexes” value is listed as “neither peptide was detectable”. As to “Q600F peptide (heteroclitic S598 analogue), Aba-modified (from UniProt P22432 598-605)”, in assay [2], the Tm of the K^b/peptide complex amounted to 62.7 °C. For RCEIFANI [Epitope Q600E], the immunogenicity entry in assay [3] was “not immunogenic”.

On to RCYIFANI [Epitope Q600Y], for which the “fraction of S598-primed CD8 T cells recognizing the variant peptide” value in assay [4] is listed as “only a small fraction”. Further, the “fraction of responding T cells that recognized only the variant epitope” value in assay [5] is given as ~ 35%. In the case of “S598 peptide (native epitope), Aba-modified”, the Tm of the K^b/peptide complex in assay [2] came to 56.2 °C. TSYKFESV [Epitope B8_20-27]: the “level of VacV-derived control peptide” value in assay [1] is “equivalently high levels”.

Source of the values: paper PMC4052115 (Journal of immunology (Baltimore, Md. : 1950), 2014).
